Earlier results in US9374973B2, “Grass endophytes” (GRASSLANZ TECHNOLOGY LTD, priority 2003, dated 2016).

Columns and labels:
[1] = tested on: black beetle (Heteronychus arator); conditions: in vivo
[2] = tested on: grazing sheep, cattle, deer and horses
[3] = tested on: Argentine stem weevil (Listronotus bonariensis); conditions: in vivo

CC(C)[C@H]1C(=O)N2CCC[C@H]2[C@]2(O)O[C@@](C)(NC(=O)[C@@H]3C=C4c5cccc6[nH]cc(c56)C[C@H]4N(C)C3)C(=O)N12 [Ergovaline]
Effect on black beetle [1]: deterrent | Concentration in ryegrass pastures likely to elicit hyperthermia and depressed prolactin responses ([2]; bovine, in vivo): above 0.5 ppm

CC(C)=C[C@H]1O[C@H]2[C@H]3O[C@@]34[C@H](CC[C@@]3(C)[C@@]4(O)CC[C@H]4Cc5c([nH]c6ccc7c(c56)C[C@@H]5[C@@H](C7=O)C(C)(C)OC5(C)C)[C@@]43C)O[C@@H]2C(C)(C)O1 [Lolitrem B]
Herbage concentration that may result in clinical symptoms of ryegrass staggers ([2]; grazing sheep, cattle, deer and horses): > 2 ppm of herbage dry matter

Cn1c(CCCN=C(N)N)cn2cccc2c1=O [Peramine]
Effect on Argentine stem weevil [3]: feeding deterrent

lolitrem
Effect on Argentine stem weevil [3]: toxic
